Assay results as given in patent publication US11878984B2, “Compounds derived from Streptomyces and uses thereof” (KOREA INSTITUTE OF OCEAN SCIENCE & TECHNOLOGY, priority 2018, dated 2024).

Legend:
[1] = tested on: BV-2 microglial cells; test: Nitrite assay: LPS-stimulated NO production in BV-2 microglial cells; format: cell-based; conditions: for NO production decreased compared to the control group: 100 μM compound
Procedure: (§1) BV-2 microglial cells were cultured in Dulbecco's modified Eagle medium supplemented with 5% Fetal bovine serum and 1% 100 units/mL of penicillin/streptomycin at 37° C. in a humidified 5% CO2 incubator.
For Nitrite assay, the BV-2 microglial cells seeded at a density of 1.25×10^5 cell/each well in 24-well plate were pretreated with various concentrations of compounds 1-4 for 1 h, followed by LPS (200 ng/mL) for 24 h. A range of sodium nitrite dilutions was used to obtain a standard curve with the amount of nitrite in each sample. Absorbance was determined at 540 nm using a microplate reader (Tecan Trading AG).

[2] = tested on: BV-2 microglial cells; test: MTT assay: cell viability of LPS-stimulated BV-2 microglial cells; format: cell-based
Procedure: as §1
The BV-2 microglial cells seeded at a density of 1.25×10^5 cell/each well in 24-well plate were pretreated with various concentration of compounds (12.5, 25, 50, and 100 μM for compounds 1-3 and 1, 2, 4, and 8 μM for compound 4) for 1 h, followed by LPS (200 ng/mL) for 24 h. 20 μL of MTT (2 mg/mL) solution was added to each well. After 1 h, the supernatant was sucked out and crystals of formazan were dissolved in DMSO. Optical density was measured at 550 nm using a microplate reader (Tecan Trading AG) and values were determined in comparison to control cells.

[3] = pretreated 1 h, then LPS (200 ng/mL) 24 h

Row | Compound | NO production decreased compared to the control group [1, 3] | cellular viability ([2]; 1, 2, 4 and 8 μM, pretreated 1 h, then LPS (200 ng/mL) 24 h, MTT, compared to control cells) | cytotoxicity ([2]; low concentration of less than 10 μM, BV-2 microglial cells (FIG. 12)) | NO production reduced compared to the control group ([1]; compound at low concentration of 1 to 8 μM, pretreated 1 h, then LPS (200 ng/mL) 24 h) | NO production inhibiting effect ([1]; low concentration of less than 10 μM)
1 | C/C=C/C=C/CC[C@]12OCC[C@@H]3OC[C@](O)(CO1)[C@@H]32 [Compound 1, (2aS,2a^1R,4aS,7aS)-7a-((3E,5E)-hepta-3,5-diene-1-yl)tetrahydro-2H,6H,1,4,7-trioxacyclopenta[cd]indene-2a(3H)-ol] | about 22% |  |  |  | 
2 | C/C=C/C=C/C=C/[C@]12OCC[C@@H]3OC[C@](O)(CO1)[C@@H]32 [Compound 2, (2aS,2a^1R,4aS,7aS)-7a-((1E,3E,5E)-hepta-1,3,5-triene-1-yl)tetrahydro-2H, 6H,1,4,7-trioxacyclopenta[cd]indene-2a(3H)-ol] | about 25% |  |  |  | 
3 | C/C=C/C=C/CC[C@]12OCC[C@@H]3OC[C@](OC(=O)c4ccccc4N)(CO1)[C@@H]32 [Compound 3, (2aS,2a^1R,4aS,7aS)-7a-((3E,5E)-hepta-3,5-diene-1-yl)tetrahydro-2H,6H,1,4,7-trioxacyclopenta[cd]indene-2a(3H)-yl-2-aminobenzoate] | about 50% |  |  |  | 
4 | C/C=C/C=C/C=C/[C@]12OCC[C@@H]3OC[C@](OC(=O)c4ccccc4N)(CO1)[C@@H]32 [Compound 4, (2aS,2a^1R,4aS,7aS)-7a-((1E, 3E,5E)-hepta-1,3,5-triene-1-yl)tetrahydro-2H, 6H,1,4,7-trioxacyclopenta[cd]indene-2a(3H)-yl-2-aminobenzoate] |  | less than 80% | cytotoxicity | about 93% | strong NO production inhibiting effect
